From article PMC6277555, “Short Symmetric-End Antimicrobial Peptides Centered on β-Turn Amino Acids Unit Improve Selectivity and Stability” (Frontiers in Microbiology, 2018)
≈ marks a conversion by molar mass, not a printed value. Residues, ends and D or L forms follow the SMILES beside them.

Experiments:
E. coli UB1005 = format: cell-based, Escherichia coli
Protocol: (§1) The minimal inhibitory concentration (MIC) was determined according to a previously described method ([Chou et al., 2016]). Bacteria were cultured overnight to mid-log phase in MHB at 37°C and then diluted to give final concentrations ranging from 2 × 10^5 to 7 × 10^5 CFU/mL. Then, 50 μL of serial twofold dilutions of the peptides were added to each well in 96-well microtiter plates with a mixed solution containing 0.01% acetic acid and 0.2% bovine serum albumin (BSA, Sigma) was used to dissolve and dilute the peptides. Then, equal amounts of bacterial aliquots were incubated with the above peptide solution for 18–24 h at 37°C. The experiment was performed in triplicate using three replicates for each peptide and each bacterium. The broth was employed as a negative control and the broth with microbial cells was used as a positive control. The lowest concentration of peptide that prevented visible turbidity was defined as the MIC.

E. coli ATCC25922 = format: cell-based, Escherichia coli
Protocol: as §1, with “18-24” for “18–24”, “MIC. The condition sensitivity of peptides was tested in an MIC assay in different environments, including salt sensitivity, thermal sensitivity and different pH values similar to our previous method ([[…] et al., 2008]; [Ma et al., 2012]). […] For the heat resistance experiments, the peptides were incubated at 100°C for 30 min and cooled on ice for 10 min. […] The determination methods for these MIC assays were same as described above. To test the effects of serum on the antimicrobial activities of the peptides, human serum was dissolved in MHB to reach final concentrations of 25 and 50%. The determination methods for these MIC assays were same as described above.” for “MIC.”

E. coli = assay: Time killing assay; format: cell-based, Escherichia coli; details: mean of three independent assays
Protocol: The ability of peptides to kill bacterial cells was further investigated by analyzing the fraction of cell survival upon peptide treatment at various exposure times according to a previously described method ([Wiradharma et al., 2012]). Briefly, E. coli and S. aureus were treated at MIC and 2 × MIC concentrations with peptides. At various time periods (0, 5, 10, 30, 60, 90, 120, and 150 min), microbial suspensions were diluted at three different dilutions and plated on MHA plates. Microbial colonies were formed and counted after 24 h of incubation. The results were presented as the mean data from three independent assays.

S. typhimurium ATCC 7731 = format: cell-based, Salmonella entericaserovar Typhimurium
Protocol: as §1

S. aureus ATCC 43300 = format: cell-based, Staphylococcus aureus
Protocol: as §1

B. subtilis CMCC 63501 = format: cell-based, Bacillus subtilis
Protocol: as §1

[1] = LPS-binding assay (BODIPY-TR-cadaverine displacement); design: species or system Escherichia coli; details: BC displacement at the MIC concentration; relative to 10 μg/mL polymyxin B
Protocol: The binding affinities of peptides to LPS were examined using the BODIPY-TR-cadaverine fluorescent dye (BC, Sigma, United States) displacement assay, in which a probe bound to cell-free LPS results in dequenching of BC fluorescence. Stock solutions of LPS from E. coli O111:B4 (5 mg/mL; Sigma-Aldrich, China) and BC (2.5 mg/mL; Sigma-Aldrich, China) were prepared and diluted in Tris buffer (pH 7.4, 50 mM) to reach a final concentration of 50 μg/mL of LPS and 5 μg/mL BC. A 100 μL aliquot of the LPS-probe and peptide mixture (50 μL LPS and BC solutions at final concentrations of 25 μg/mL LPS and 2.5 μg/mL BODIPY-TR-cadaverine, 50 μL peptide with various concentrations ranging from 1 to 64 μM) was added in a sterile 96-well black plate. The fluorescence was measured on a spectrofluorophotometer (the Infinite 200 pro, Tecan, China) at excitation and emission wavelengths of 580 and 620 nm, respectively, with each test performed independently in triplicate. The values were converted to % ΔF (AU) using the following equation:
where Fobs is the observed fluorescence at a given peptide concentration, F0 is the initial fluorescence of BC with LPS in the absence of peptides, and F100 is the BC fluorescence with LPS cells upon addition of 10 μg/mL polymyxin B, which is a prototype LPS binder and was used as a positive control.

[2] = test system: S. epidermidis ATCC 12228; format: cell-based, Staphylococcus epidermidis
Protocol: as §1

## CC[C@H](C)[C@H](N)C(=O)N[C@@H](Cc1c[nH]cn1)C(=O)N[C@@H](CCCCN)C(=O)N[C@@H](Cc1ccccc1)C(=O)N[C@@H](Cc1c[nH]c2ccccc12)C(=O)N[C@@H](CCCNC(=N)N)C(=O)N[C@@H](CS)C(=O)N[C@@H](CCCNC(=N)N)C(=O)N[C@@H](CCCNC(=N)N)C(=O)N[C@@H](CCCNC(=N)N)C(=O)N[C@@H](Cc1ccccc1)C(=O)N[C@@H](CS)C(=O)N[C@@H](CCCNC(=N)N)C(=O)N[C@@H](Cc1c[nH]c2ccccc12)C(=O)N[C@@H](Cc1ccccc1)C(=O)N[C@@H](CCCCN)C(=O)N[C@@H](Cc1c[nH]cn1)C(=O)N[C@H](C(N)=O)[C@@H](C)CC [PQ] (H-IHKFWRCRRRFCRWFKHI-NH2; N-terminus assumed)
E. coli UB1005
  MIC: 8 µM (≈ 20.6 µg/mL)
E. coli ATCC25922; ATCC25922
  MIC: 16 µM (≈ 41.2 µg/mL)
  MIC, CaCl2: 32 µM (≈ 82.4 µg/mL)
  MIC, Control: 16 µM (≈ 41.2 µg/mL)
  MIC, FeCl3: 8 µM (≈ 20.6 µg/mL)
  MIC, Heat (100°C): 32 µM (≈ 82.4 µg/mL)
  MIC, KCl: 4 µM (≈ 10.3 µg/mL)
  MIC, MgCl2: 4 µM (≈ 10.3 µg/mL)
  MIC, NH4Cl: 4 µM (≈ 10.3 µg/mL)
  MIC, NaCl: 8 µM (≈ 20.6 µg/mL)
  MIC, ZnCl2: 4 µM (≈ 10.3 µg/mL)
E. coli ATCC25922; ATCC25922, pH 4
  MIC, pH 4.0: 8 μM
E. coli ATCC25922; ATCC25922, pH 6
  MIC, pH 6.0: 8 μM
E. coli ATCC25922; ATCC25922, pH 8
  MIC, pH 8.0: 4 μM
E. coli ATCC25922; ATCC25922, pH 10
  MIC, pH 10.0: 4 μM
E. coli; peptide at 1 × MIC
  Time to kill E. coli: 30 min
E. coli; peptide at 2 × MIC
  Time to kill E. coli: 30 min
S. typhimurium ATCC 7731
  MIC: 8 µM (≈ 20.6 µg/mL)
S. aureus ATCC 43300
  MIC: 8 µM (≈ 20.6 µg/mL)
B. subtilis CMCC 63501
  MIC: 16 µM (≈ 41.2 µg/mL)
[1]
  LPS binding, fluorescence (% ΔF): above 80%
[2]
  MIC: 8 µM (≈ 20.6 µg/mL)
